Measurements reported in patent US20240189284A1, “COMPOSITION FOR PROMOTING LIPOLYSIS” (SUNTORY HOLDINGS LIMITED, priority 2021, published 2024).

Tests used:
[1] = mice, oral administration, vs. mice not administered; cited from earlier work
lipolysis = assay: Blood metabolome evaluation study on human (placebo-controlled, randomized, double-blind, parallel-group; CE-TOF-MS); type: in vivo
Procedure: In order to evaluate the influence of supplements containing ergothioneine on the human blood metabolome, a placebo-controlled, randomized, double-blind, parallel-group study was conducted on subjects including male and female adults (46 subjects in a test food group; 46 subjects in a control food group; 92 subjects in total). In this study, one capsule containing 20 mg ergothioneine (test food) or one capsule not containing ergothioneine (control food) was fed per day for four weeks. The blood metabolome of each subject was measured for pre-testing before starting the study (before starting ingestion of the test food or control food). After ingestion of the test food or control food for four weeks, the blood metabolome of each subject was measured again (testing on week 4). The blood metabolome was measured by a capillary electrophoresis time-of-flight mass spectrometry (CE-TOF-MS) available from Human Metabolome Technologies, Inc. Two types of food for evaluation, which were indistinguishable in appearance, flavor, and the like, were used. • Test food: capsule containing a test substance (20 mg L-ergothioneine) • Control food: capsule containing no test substance Each type of food for evaluation contained raw materials such as dextrin, hydroxypropyl cellulose, carrageenan, potassium chloride, and titanium oxide, in addition to the test substance. The control food was produced using the same raw materials used in the test food, except that the test substance (L-ergothioneine) was not added. For each of lipid metabolism-related metabolites and lipids of various kinds for which significant changes were observed by the blood metabolome measurement, a ratio (test food group/control food group) was determined from the average of measurements (blood concentrations) of the test food group and the control food group at the time of testing on week 4. FIG. 1 is a graph showing blood metabolome measurements of the test food group and the control food group at the time of testing on week 4 in the form of ratios (test food group/control food group). […]

[2] = L-ergothioneine ingested compared to no L-ergothioneine ingested

## C[N+](C)(C)[C@@H](Cc1c[nH]c(=S)[nH]1)C(=O)[O-] [L-ergothioneine]
[1]
  peritesticular fat weight: lower
  triglyceride (neutral fat) level in plasma: lower
lipolysis; [2]
  blood free fatty acid (e.g., palmitoleic acid) concentration: increased
  blood glycerol concentration: significantly increased
lipolysis; human adults, 20 mg L-ergothioneine per day for four weeks, blood metabolome as a whole
  promotion of lipolysis: action to promote lipolysis
